In patent US20150238401A1, “PROPYL-PHENYL-ETHER DERIVATIVE, AND MELANOGENESIS INHIBITOR, SKIN-LIGHTENING AGENT, ANTIMICROBIAL AGENT AND COSMETIC CONTAINING SAID PROPYL-PHENYL-ETHER DERIVATIVE” (SEIWA KASEI COMPANY, LIMITED, priority 2012, published 2015):

Experiments:
B16 melanoma 4A5 cell = test: Melanogenesis inhibiting test (theophylline-induced melanine production); format: cell-based; conditions: B16 mouse melanoma 4A5, theophylline 1.0 mmol/L, 3 days culture, N=4; for IC40: B16 melanoma 4A5, 72 h, read-out: Judgment: sample concentration showing the melanogenesis inhibiting ratio of 40% or more
Method: As a test for a skin-lightening effect, evaluation of the action of B16 melanoma 4A5 cell on theophylline-induced melanine production was carried out on propyl-phenyl-ether derivatives of the present invention, according to the following procedure. (1) B16 mouse melanoma 4A5 strain was sowed onto a 48-well plate at a cell density of 8.0×10^3 cells/well. (2) Culturing was performed for 24 hours with Dulbecco's Modified Eagle's medium (manufactured by SIGMA. Hereinafter, abbreviated as D-MEM) containing 10% fetal bovine serum (manufactured by Nichirei Biosciences Inc.). […] (3) After culturing for 3 days in the co-existence of a sample, the medium was removed using an aspirator. Then, after distilled water was added, cells were broken by an ultrasonic wave. (4) Thereafter, the amount of protein was determined using BCA protein assay kit (manufactured by Thermo Fisher Scientific Inc.), and the produced amount of melanine was measured by an alkali solubilizing method described below. [Alkali Solubilizing Method] To the cell-destructed solution was added sodium hydroxide so as to give a final concentration of 1 mol/L and the mixture was dissolved by heating (60° C., 30 minutes), then, the absorbance at 450 nm was measured using a micro plate reader. The melanine amount was calculated from a calibration curve made using synthetic melanine (SIGMA) as a standard. The melanine amount per unit protein was calculated by dividing the melanine amount by the protein amount. (5) The melanine production suppressing rate was calculated according to the following formula. Melanine production suppressing rate (%)=[1−(A−B)/(C−B)]×100 [wherein, A represents the melanine amount per unit protein (g/g) in adding a sample, B represents the melanine amount per unit protein (g/g) in the normal group, and C represents the melanine amount per unit protein (g/g) in the control group.] In the above, Normal group is a case of theophylline (−; no addition) and sample (−; no addition), and Control group is a case of theophylline (+; addition) and sample (−; no addition). (6) Determination of Skin-Lightening Effect The amount of a sample required for adjusting the melanogenesis inhibiting ratio to 40% or more was measured, and the effect was evaluated by the following criteria based on the measured amount. The measurement was conducted at N=4 (4 wells per sample). The skin-lightening effect is expressed as described below based on the sample concentration showing the melanogenesis inhibiting ratio of 40% or more. The measurement was conducted at N=4.

[1] = test system: Propionibacterium acnes (JCM6415); test: Anti-acne test (growth in GAM bouillon medium, OD620); format: cell-based; conditions: sample final concentration 0.1%, 37° C., anaerobic, 48 hours
Method: Propionibacterium acnes (JCM6415: ATCC strain) was transplanted to GAM bouillon medium (manufactured by Nissui Pharmaceutical Co., Ltd.), and cultured at 37° C. under anaerobic condition for 24 hours. Thereafter, it was diluted with GAM bouillon medium so that the final bacterium concentration was OD620=0.1, and this was used as a test bacterium solution. In examples, the propyl-phenyl-ether derivative was weighed so that the final concentration was 0.1%, dissolved in GAM bouillon medium, then, filter-sterilization was performed. The resultant solution was used as a sample solution. The test bacterium solution was added in an amount of 30 μL and the sample solution was added in an amount of 120 μL to a 96-well microplate (manufactured by Sumitomo Bakelite Co., Ltd.), then, immediately, the micro plate and AnaeroPack-KENKI (manufactured by Mitsubishi Gas Chemical Co., Inc.) were placed into an anaerobic jar (manufactured by Mitsubishi Gas Chemical Co., Inc.), and culture was carried out at 37° C. under anaerobic condition for 48 hours. Thereafter, OD620 was measured by a microplate reader. The same test was conducted using methylparaben, phenoxyethanol and sodium ascorbate as comparative compounds.
The results are classified by the following criteria and shown in Table 5-Table 7. • Δ: OD620 is 0.6 or more • ◯: OD620 is 0.3-0.6 • ⊚: OD620 is 0.3 or less

SMILES	IC40 (B16 melanoma 4A5 cell)	Judgment: OD620 after culture [1]	Judgment: sample concentration showing the melanogenesis inhibiting ratio of 40% or more (B16 melanoma 4A5 cell)
CCOC(CO)COc1ccc(C(C)(C)C)cc1 (stereo not drawn) [2-O-ethyl-1-hydroxy-3-(4′-tert-butylphenoxy)propyl]	≤ 30 µM	⊚⊚	
OCC(O)COc1ccccc1 (stereo not drawn) [Synthesis Example 3, 1,2-di-hydroxy-3-phenoxypropyl, reference compound]	≥ 300 µM	Δ (Δ: OD620 is 0.6 or more)	
CC(C)(c1ccc(OCC(O)CO)cc1)c1ccc(OCC(O)CO)cc1 (stereo not drawn) [Example 25]	≤ 30 µM	⊚⊚	
CC(C)(C)c1ccc(OCC(O)COc2ccc(O)cc2)cc1 (stereo not drawn) [Example 9, 1-(4″-hydroxyphenoxy)-2-hydroxy-3-(4′-tert-butylphenoxy)propyl]	30 to 100 µM	⊚ (⊚: OD620 is 0.3 or less)	
CCOCC(O)COc1ccc(C(C)C)c(C)c1 (stereo not drawn) [Example 29, 1-O-ethyl-2-hydroxy-3-(3′-methyl-4′-isoproylphenoxy)propyl]	≤ 30 µM	⊚⊚	
CCOCC(O)COc1ccc(C(C)(C)c2ccc(OCC(O)COCC)cc2)cc1 (stereo not drawn) [Example 32, 2,2-bis[4′-(1″-O-ethyl-2″-hydroxypropoxy)phenyl]propane]	≤ 30 µM	⊚⊚	
CC(C)c1ccc(OCC(O)CO)cc1 (stereo not drawn) [Example 13, 1,2-di-hydroxy-3-(4′-isopropylphenoxy)propyl]	30 to 100 µM	⊚ (⊚: OD620 is 0.3 or less)	
Cc1cc(OCC(O)CO)c(C(C)(C)C)cc1C(C)(C)C (stereo not drawn) [Example 21, 1,2-di-hydroxy-3-(2′,4′-di-tert-butyl-5′-methylphenoxy)propyl]	≤ 30 µM	⊚⊚	
COC(=O)c1ccc(O)cc1 [Methylparaben, reference compound]		Δ (Δ: OD620 is 0.6 or more)	
CCOCC(O)COc1ccccc1C(C)CC (stereo not drawn) [Example 27, 1-O-ethyl-2-hydroxy-3-(2′-sec-butylphenoxy)propyl]	30 to 100 µM	⊚ (⊚: OD620 is 0.3 or less)	
CC(C)(C)c1ccc(OCC(O)COCC(O)COc2ccc(C(C)(C)C)cc2)cc1 (stereo not drawn) [Example 10, di[2-hydroxy-3-(4′-tert-butylphenoxy)propyl]ether]	100 to 300 µM	⊚ (⊚: OD620 is 0.3 or less)	
COc1ccc(OCC(O)CO)cc1C(C)(C)C (stereo not drawn) [Example 24, 1,2-di-hydroxy-3-(3′-tert-butyl-4′-methoxylphenoxy)propyl]	30 to 100 µM	⊚ (⊚: OD620 is 0.3 or less)	
CCOCC(O)COc1ccc(C(C)(C)c2ccccc2)cc1 (stereo not drawn) [Example 28, 1-O-ethyl-2-hydroxy-3-(4′-α-cumylphenoxy)propyl]	≤ 30 µM	⊚⊚	
CC(O)COc1ccc(C(C)(C)C)cc1 (stereo not drawn) [Example 2, 2-hydroxy-3-(4′-tert-butylphenoxy)propyl]	30 to 100 µM	⊚ (⊚: OD620 is 0.3 or less)	
COc1ccc(OCC(O)CO)c(C(C)(C)C)c1 (stereo not drawn) [Example 23, 1,2-di-hydroxy-3-(2′-tert-butyl-4′-methoxylphenoxy)propyl]	30 to 100 µM	⊚ (⊚: OD620 is 0.3 or less)	
CCC(C)(C)c1ccc(OCC(O)CO)cc1 (stereo not drawn) [Example 15, 1,2-di-hydroxy-3-(4′-tert-amylphenoxy)propyl]	≤ 30 µM	⊚⊚	

SMILES	IC40 (B16 melanoma 4A5 cell)	Judgment: OD620 after culture [1]	Judgment: sample concentration showing the melanogenesis inhibiting ratio of 40% or more (B16 melanoma 4A5 cell)
CCOCC(O)COc1c(C(C)CC)cccc1C(C)CC (stereo not drawn) [Example 30, 1-O-ethyl-2-hydroxy-3-(2′,6′-di-sec-butylphenoxy)propyl]	≤ 30 µM	⊚⊚	
CCc1ccc(OCC(O)CO)cc1 (stereo not drawn) [Example 14, 1,2-di-hydroxy-3-(4′-ethylphenoxy)propyl]	100 to 300 µM	⊚ (⊚: OD620 is 0.3 or less)	
O=C1O[C@H]([C@@H](O)CO)C([O-])=C1O.[Na+] [Sodium Ascorbate, reference compound]		Δ (Δ: OD620 is 0.6 or more)	
CC(C)(C)c1ccc(OCCCO)cc1 [Example 18, 1-hydroxy-3-(4′-tert-butylphenoxy)propyl]	30 to 100 µM	⊚ (⊚: OD620 is 0.3 or less)	
CCCCC(CC)COCC(O)COc1ccccc1C(C)CC (stereo not drawn) [Example 26, 1-O-(2″-ethylhexyl)-2-hydroxy-3-(2′-sec-butylphenoxy) propyl]	30 to 100 µM	⊚ (⊚: OD620 is 0.3 or less)	
CC(C)(C)c1ccc(OCC(O)COc2ccc(C(C)(C)C)cc2)cc1 [Example 8, 2-hydroxy-1,3-di-(4′-tert-butylphenoxy)propyl]	≤ 30 µM	⊚⊚	
CCOCC(O)COc1ccc(C(C)(C)CC(C)(C)C)cc1 (stereo not drawn) [Example 33, 1-O-ethyl-2-hydroxy-3-[4′-(1″,1″,3″,3″-tetramethylbutyl)phenoxy]propyl]	30 to 100 µM	⊚ (⊚: OD620 is 0.3 or less)	
CCCCc1ccc(OCC(O)CO)cc1 (stereo not drawn) [Example 12, 1,2-di-hydroxy-3-(4′-n-butylphenoxy)propyl]	30 to 100 µM	◯ (◯: OD620 is 0.3-0.6)	
CC(C)(C)CC(C)(C)c1ccc(OCC(O)CO)cc1 (stereo not drawn) [Example 17, 1,2-di-hydroxy-3-[4′-(1″,1″,3″,3″-tetramethylbutyl)phenoxy]propyl]	≤ 30 µM	⊚⊚	
Cc1cc(OCC(O)CO)ccc1C(C)C (stereo not drawn) [Example 31, 1,2-di-hydroxy-3-(3′-methyl-4′-isoproylphenoxy)propyl]	≤ 30 µM	⊚⊚	
CCCOc1ccc(C(C)(C)C)cc1 [Synthesis Example 1, 1-(4′-tert-butylphenoxy)propyl, reference compound]	≥ 300 µM	Δ (Δ: OD620 is 0.6 or more)	
CCOc1ccc(C(C)(C)C)cc1 [Synthesis Example 2, 1-(4′-tert-butylphenoxy)ethyl, reference compound]	≥ 300 µM	Δ (Δ: OD620 is 0.6 or more)	
CCOCC(O)COc1ccc(C(C)CC)cc1 (stereo not drawn) [Example 4, 1-O-ethyl-2-hydroxy-3-(4′-sec-butylphenoxy)propyl]		⊚ (⊚: OD620 is 0.3 or less)	⊚ (30 to 100 μmol/L: ⊚)
Cc1ccccc1OCC(O)CO (stereo not drawn) [Synthesis Example 4, 1,2-di-hydroxy-3-(2′-methylphenoxy)propyl, reference compound]	≥ 300 µM	Δ (Δ: OD620 is 0.6 or more)	
CC(C)(C)c1ccc(OCC(O)CO)c(C(C)(C)C)c1 (stereo not drawn) [Example 20, 1,2-di-hydroxy-3-(2′,4′-di-tert-butylphenoxy)propyl]	≤ 30 µM	⊚⊚	
